Test: heating test: absorbance at 454 nm of ammonium adipate solutions after heating the adipic acid batches
Assay type: physicochemical
Conditions: 50 g heated to 215° C. for 205 min, then placed in 415 ml aqueous 5% ammonia solution, reference adipic acid (A) = 1
Experimental: The adipic acid batches (A) and (B) are subjected to a heating test. This test consists in heating 50 g of each batch to 215° C. for 205 min and then placing each of them in 415 ml of aqueous 5% ammonia solution. The absorbence at 454 nm of the ammonium adipate solutions obtained is then measured.
The results below are obtained, expressed as relative absorbences, the reference adipic acid (A) representing the value 1:
This test consists in heating 50 g of each batch to 215° C. for 205 min and then placing each of them in 415 ml of aqueous 5% ammonia solution.
The absorbance at 454 nm of the ammonium adipate solutions obtained is then measured.
The following results are obtained, expressed as relative absorbances, the reference adipic acid (A) representing the value 1: […]

In the case of `O=C(O)CCCCC(=O)O` [adipic acid (C), adipic acid], the “Relative absorbance at 454 nm” value (listed as C) is reported as 0.3.
For `O=C(O)CCCCC(=O)O` [adipic acid (D), adipic acid], the “Relative absorbance at 454 nm” value (listed as D) was 0.2.
With `O=C(O)CCCCC(=O)O` [adipic acid (B), adipic acid] the “relative absorbence at 454 nm” value was 0.25.
For `O=C(O)CCCCC(=O)O` [adipic acid (E), adipic acid], the “Relative absorbance at 454 nm” value (listed as E) was 0.5.
For `O=C(O)CCCCC(=O)O` [adipic acid (A), adipic acid, reference compound], the “Relative absorbance at 454 nm” value was 1 and the “relative absorbence at 454 nm” value was 1.
